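GI50 is the concentration that inhibits growth by half. TGI is the concentration that stops growth completely.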
Legend:
Assay in all cases: NCI anticancer screen, dose series, 384-well format
SF-295 CNS = system: SF-295 CNS
SF-539 CNS = system: SF-539 CNS
T-47D breast = system: T-47D breast
RXF 393 renal = system: RXF 393 renal
ACHN renal = system: ACHN renal
BT-549 breast = system: BT-549 breast
KM12 colon = system: KM12 colon
NCI/ADR-RES ovarian = system: NCI/ADR-RES ovarian
MOLT-4 leukemia = system: MOLT-4 leukemia
HCT-15 colon = system: HCT-15 colon
NCI-H460 NSCLC = system: NCI-H460 NSCLC
SR leukemia = system: SR leukemia
SK-MEL-5 melanoma = system: SK-MEL-5 melanoma
COLO 205 colon = system: COLO 205 colon
SN12C renal = system: SN12C renal
M14 melanoma = system: M14 melanoma
UACC-62 melanoma = system: UACC-62 melanoma
SK-MEL-2 melanoma = system: SK-MEL-2 melanoma
HOP-92 NSCLC = system: HOP-92 NSCLC
UACC-257 melanoma = system: UACC-257 melanoma
786-0 renal = system: 786-0 renal
MCF7 breast = system: MCF7 breast
MDA-MB-435 melanoma = system: MDA-MB-435 melanoma
DU-145 prostate = system: DU-145 prostate
HS 578T breast = system: HS 578T breast
SK-OV-3 ovarian = system: SK-OV-3 ovarian
PC-3 prostate = system: PC-3 prostate
HL-60(TB) leukemia = system: HL-60(TB) leukemia
MDA-MB-468 breast = system: MDA-MB-468 breast
A498 renal = system: A498 renal
NCI-H522 lung = system: NCI-H522 lung
HT29 colon = system: HT29 colon
OVCAR-3 ovarian = system: OVCAR-3 ovarian
TK-10 renal = system: TK-10 renal
NCI-H23 lung = system: NCI-H23 lung
CCRF-CEM leukemia = system: CCRF-CEM leukemia
OVCAR-5 ovarian = system: OVCAR-5 ovarian
IGROV1 ovarian = system: IGROV1 ovarian
SF-268 CNS = system: SF-268 CNS
HCC-2998 colon = system: HCC-2998 colon
SW-620 colon = system: SW-620 colon
A549 NSCLC = system: A549 NSCLC
EKVX NSCLC = system: EKVX NSCLC
NCI-H226 lung = system: NCI-H226 lung
OVCAR-4 ovarian = system: OVCAR-4 ovarian
MDA-MB-231 breast = system: MDA-MB-231 breast
SK-MEL-28 melanoma = system: SK-MEL-28 melanoma
OVCAR-8 ovarian = system: OVCAR-8 ovarian
SNB-19 CNS = system: SNB-19 CNS
CAKI-1 renal = system: CAKI-1 renal
U251 glioblastoma = system: U251 glioblastoma
HOP-62 NSCLC = system: HOP-62 NSCLC
RPMI-8226 leukemia = system: RPMI-8226 leukemia
NCI-H322M lung = system: NCI-H322M lung
SNB-75 CNS = system: SNB-75 CNS
MALME-3M melanoma = system: MALME-3M melanoma

`CCc1ccc(/C=C2/SC(=S)NC2=O)cc1` showed a GI50 (SF-295 CNS) of 33.7 µM, a TGI (SF-295 CNS) greater than 100 µM and a GI50 (SF-539 CNS) of 15.9 µM. It also gave a TGI (SF-539 CNS) of 30.8 µM, a GI50 (T-47D breast) of 23.6 µM and a TGI (T-47D breast) of 49.4 µM. The GI50 (RXF 393 renal) was 21.2 µM, the TGI (RXF 393 renal) was 42.7 µM and the GI50 (ACHN renal) was 25 µM. For the same compound, the TGI (ACHN renal) was 60.5 µM, the GI50 (BT-549 breast) was 19.7 µM and the TGI (BT-549 breast) was 36.1 µM. It also gave a GI50 (KM12 colon) of 20.7 µM, a TGI (KM12 colon) of 44.1 µM and a GI50 (NCI/ADR-RES ovarian) of 21 µM. It also gave a TGI (NCI/ADR-RES ovarian) of 45 µM, a GI50 (MOLT-4 leukemia) of 16.9 µM and a TGI (MOLT-4 leukemia) of 30.6 µM. It also gave a GI50 (HCT-15 colon) of 18.5 µM, a TGI (HCT-15 colon) of 44 µM and a GI50 (NCI-H460 NSCLC) of 17.8 µM. It also gave a TGI (NCI-H460 NSCLC) of 33.3 µM, a GI50 (SR leukemia) of 12.5 µM and a TGI (SR leukemia) of 25.1 µM. It also gave a GI50 (SK-MEL-5 melanoma) of 18.6 µM, a TGI (SK-MEL-5 melanoma) of 33.1 µM and a GI50 (COLO 205 colon) of 27.1 µM. The TGI (COLO 205 colon) was 54.1 µM, the GI50 (SN12C renal) was 29.1 µM and the TGI (SN12C renal) was 95.8 µM. It also gave a GI50 (M14 melanoma) of 19.6 µM, a TGI (M14 melanoma) of 39.6 µM and a GI50 (UACC-62 melanoma) of 31.1 µM. The TGI (UACC-62 melanoma) was 83.2 µM, the GI50 (SK-MEL-2 melanoma) was 20.9 µM and the TGI (SK-MEL-2 melanoma) was 37.7 µM. The GI50 (HOP-92 NSCLC) was 18.1 µM, the TGI (HOP-92 NSCLC) was 37.9 µM and the GI50 (UACC-257 melanoma) was 21.3 µM. It also gave a TGI (UACC-257 melanoma) of 42.1 µM, a GI50 (786-0 renal) of 28.6 µM and a TGI (786-0 renal) of 88 µM. It also gave a GI50 (MCF7 breast) of 26.2 µM, a TGI (MCF7 breast) of 68 µM and a GI50 (MDA-MB-435 melanoma) of 21.2 µM. It also gave a TGI (MDA-MB-435 melanoma) of 44.9 µM, a GI50 (DU-145 prostate) of 27.7 µM and a TGI (DU-145 prostate) of 85.3 µM. It also gave a GI50 (HS 578T breast) of 19.4 µM, a TGI (HS 578T breast) of 39.5 µM and a GI50 (SK-OV-3 ovarian) of 18.5 µM. For the same compound, the TGI (SK-OV-3 ovarian) was 43.2 µM, the GI50 (PC-3 prostate) was 23.4 µM and the TGI (PC-3 prostate) was 49.8 µM. The GI50 (HL-60(TB) leukemia) was 20.3 µM, the TGI (HL-60(TB) leukemia) was 34.9 µM and the GI50 (MDA-MB-468 breast) was 16.3 µM. The TGI (MDA-MB-468 breast) was 33.1 µM, the GI50 (A498 renal) was 16.7 µM and the TGI (A498 renal) was 33.1 µM. For the same compound, the GI50 (NCI-H522 lung) was 14.7 µM, the TGI (NCI-H522 lung) was 36.9 µM and the GI50 (HT29 colon) was 24.9 µM. The TGI (HT29 colon) was 57.2 µM, the GI50 (OVCAR-3 ovarian) was 18 µM and the TGI (OVCAR-3 ovarian) was 36.5 µM. For the same compound, the GI50 (TK-10 renal) was 26.3 µM, the TGI (TK-10 renal) was 74.1 µM and the GI50 (NCI-H23 lung) was 15.7 µM. It also gave a TGI (NCI-H23 lung) of 34.6 µM, a GI50 (CCRF-CEM leukemia) of 16.5 µM and a TGI (CCRF-CEM leukemia) of 30.3 µM. The GI50 (OVCAR-5 ovarian) was 17.5 µM, the TGI (OVCAR-5 ovarian) was 43.5 µM and the GI50 (IGROV1 ovarian) was 30.5 µM. For the same compound, the TGI (IGROV1 ovarian) was greater than 100 µM, the GI50 (SF-268 CNS) was 19.3 µM and the TGI (SF-268 CNS) was 45.8 µM. It also gave a GI50 (HCC-2998 colon) of 21.6 µM, a TGI (HCC-2998 colon) of 43.6 µM and a GI50 (SW-620 colon) of 24.5 µM. It also gave a TGI (SW-620 colon) of 59.6 µM, a GI50 (A549 NSCLC) of 19.8 µM and a TGI (A549 NSCLC) of 46.2 µM. The GI50 (EKVX NSCLC) was 20.8 µM, the TGI (EKVX NSCLC) was 49.5 µM and the GI50 (NCI-H226 lung) was 16.7 µM. For the same compound, the TGI (NCI-H226 lung) was 36.5 µM, the GI50 (OVCAR-4 ovarian) was 13.6 µM and the TGI (OVCAR-4 ovarian) was 46.9 µM. For the same compound, the GI50 (MDA-MB-231 breast) was 20.7 µM, the TGI (MDA-MB-231 breast) was 49.5 µM and the GI50 (SK-MEL-28 melanoma) was 24.7 µM. The TGI (SK-MEL-28 melanoma) was 55.2 µM, the GI50 (OVCAR-8 ovarian) was 22.8 µM and the TGI (OVCAR-8 ovarian) was 51 µM. It also gave a GI50 (SNB-19 CNS) of 33.4 µM, a TGI (SNB-19 CNS) greater than 100 µM and a GI50 (CAKI-1 renal) of 19.3 µM. The TGI (CAKI-1 renal) was 47.6 µM, the GI50 (U251 glioblastoma) was 17.3 µM and the TGI (U251 glioblastoma) was 33.1 µM. It also gave a GI50 (HOP-62 NSCLC) of 22.1 µM, a TGI (HOP-62 NSCLC) of 42.9 µM and a GI50 (RPMI-8226 leukemia) of 15.6 µM. For the same compound, the TGI (RPMI-8226 leukemia) was 29.1 µM, the GI50 (NCI-H322M lung) was 22.5 µM and the TGI (NCI-H322M lung) was 44.8 µM. For the same compound, the GI50 (SNB-75 CNS) was 21.4 µM, the TGI (SNB-75 CNS) was 51.2 µM and the GI50 (MALME-3M melanoma) was 15.9 µM. It also gave a TGI (MALME-3M melanoma) of 33.9 µM.

From PubChem BioAssay (NCI)
